The record followed here is US8772321B2, “Heteroannelated anthraquinone derivatives for inhibiting cancers” (National Defense Medical Center, priority 2008, dated 2014).

In assay [1] the test system is telomerase. Kind of assay: PCR-based telomerase assay, TRAP (telomeric repeat amplification protocol). The assay is classed as biochemical. The text has this:
Binding of low-molecular weight ligands to quadruplexes was first studied with the classic DNA intercalator ethidium and the telomere sequence T4G4 from Oxytricha. It is apparent that G-quadruplexes, with their unique structural, electrostatic and hydrogen bonding features, are the more likely targets for drug action rather than typical duplex or triplex DNA. […] To evaluate the effects of these derivatives on telomerase inhibition, we used PCR-based telomerase assay and TRAP (telomeric repeat amplification protocol) assay at a compound concentration of 100 μM.

The subject of assay [2] is SN12C. As to the kind of experiment: NCI 60-cell one dose screen. The settings on record: SN12C (Renal cancer); 10^−5M. The assay is classed as cell-based, human. How it is done:
(§1) NSC745885 was studied as a prototype for anti-proliferative activity against human cancer cell lines in NCI Drug Screen Program (Table 1, below). NSC745885 was evaluated in the full panel of human tumor cell lines derived from nine cancer cell types (leukemia, non-small cell lung cancer, colon cancer, CNS cancer, prostate cancer, melanoma, ovarian cancer, renal cancer and breast cancer). Each subpanel uses several cell lines and dose-response curves were drawn against the decadic logarithm (log 10) of the corresponding drug concentrations for each cell line by the subpanel group. They were also evaluated in the 60 cell line panel and anticancer assay was performed in accordance with the protocol of developmental therapeutics program (one dose mean graph). Results for each compound were reported as the proliferation percentage of the treated cells with that of the untreated control cells being 100. For each of these parameters the averaged values of mean graph midpoint (MG_MID) were calculated.

Assay [3] has as its system LOX IMVI. Kind of assay: NCI 60-cell one dose screen. The assay is classed as cell-based, human. The settings on record: LOX IMVI (Melanoma); 10^−5M. The protocol:
as §1

The subject of assay [4] is SF-268. Kind of assay: NCI 60-cell one dose screen. The class given is cell-based, human. The settings on record: SF-268 (CNS cancer); 10^−5M. The protocol:
as §1

Assay [5] deals with SAS cells. Kind of assay: SAS cell proliferation / morphology. The class given is cell-based. As to conditions: 2.5 uM and 5 uM, 24 hours.
Assay [6] has as its system HCC-2998. As to the kind of experiment: NCI 60-cell panel dose-response. The class given is cell-based. As to conditions: Homo sapiens; HCC-2998 (Colon cancer).
Assay [7] has as its system 60 cancer cell lines. Kind of assay: NCI 60-cell one dose screen, whole panel. The class given is cell-based, human. The settings on record: 10^−5M. The protocol: as §1
For assay [8], the system named is Stem Cell Factor (SCF). As to the kind of experiment: SCF protein expression in cells. The class given is cell-based. How it is done:
To investigate whether NSC745885 down-regulates SCF in cancer cells, we treated bladder cancer cell (MBT2, T24) and normal epithelial cell (SV_HUC—1) with NSC745885 for 24 hours and then analyzed the SCF protein level.
We investigated NSC745885's effect on SCF expression in different cancer cells, including bladder cancer (MBT2, T24), breast cancer (MCF-7, MDA-MB-453), prostate cancer (PC3, LNCaP), kidney cancer (786-O), and kidney epithelial cell (293T). We treatment these different cancer cells with (+) or without (−) the NSC745885 (5 μM), and then analyzed SCF protein level.

The subject of assay [9] is A549/ATCC. Kind of assay: NCI 60-cell panel dose-response. The assay is classed as cell-based. As to conditions: Homo sapiens; A549/ATCC (Non-small cell lung cancer).
The test system of assay [10] is HeLa cells. As to the kind of experiment: DNA damage, immunoblot of γ-phosphorylation of histone H2A.X. The assay is classed as cell-based, human. As to conditions: various doses, 12 hour. The protocol:
The anthracyclin antibiotic agent doxorubicin (DXR) is an active cytotoxic reagent with a wide range of clinical indications, including treatment of solid tumors in the ovary, breast, and gastrointestinal systems, as well as treatment of liquid tumors such as leukemia. […] Specifically, HeLa cells were treated with NSC745885 at various doses for 12 hour. The phosphorylation of γ-H2A.X was subsequently detected by the immunoblot.
(§2) Cell lysates were prepared in lysis buffer (100 mM Tris-HCl pH 8.0, 150 mM NaCl, 0.1% SDS, and 1% Triton 100) at 4° C., separated by sodium dodecyl sulfate-polyacrylamide gel electrophoresis (SDS-PAGE), and then transferred onto a polyvinylidine difluoride membrane (Millipore, USA). Proteins were detected using antibodies against alpha actinin (ACTN), proliferating cell nuclear antigen (PCNA), p53, p21, cyclin B1, and cyclin D1 (Santa Cruz Biotechnology, USA), YH2A.X (EP854(2)Y, Epitomics, USA), cleaved caspase 3, cleaved poly(ADP-ribose) polymerase (PARP) and LC3B-II (Cell signaling, USA).

In assay [11] the test system is HeLa cells. Kind of assay: Apoptosis: cleaved PARP and caspase 3 immunoblot, DNA fragmentation gel. The class given is cell-based, human. As to conditions: 16 hours. How it is done:
It is well noted that DXR can induce cardiomyocyte death by apoptosis and necrosis. DXR is also involved in other types of cellular processes, such as autophagy and senescence/aging. To investigate induction of apoptosis caused by NSC745885, we adopted DXR as a positive control and examined the levels of cleaved PARP and caspase 3 as apoptotic indicators using immunoblot (FIG. 4A), as well as DNA fragmentation using agarose gel electrophoresis (FIG. 4B). HeLa cells were treated with either DXR or NSC745885 at various doses for 16 hours. Subsequently, the total cellular protein was extracted and immunoblotted with antibodies against the cleaved types of PARP and caspase 3. Additionally, genomic DNA was isolated and analyzed by 2% agarose gel electrophoresis followed by ethidium bromide staining. The results (FIG. 4A and FIG. 4B) are representative of three independent experiments. […] Treatment with NSC745885 decreased protein stability, an effect that appeared to be selective, and was confirmed in other immunoblot analyses (shown in FIG. 6A, lanes 1 and 6).
as §2

The subject of assay [12] is HT29. Kind of assay: NCI 60-cell panel dose-response. The assay is classed as cell-based. The settings on record: Homo sapiens, HT-29; HT29 (Colon cancer).
Assay [13] has as its system A498. As to the kind of experiment: NCI 60-cell panel dose-response. The class given is cell-based. The settings on record: Homo sapiens; A498 (Renal cancer).
Assay [14] concerns p53 and p21. Kind of assay: p53 and p21 protein expression, immunoblot. The assay is classed as cell-based, human. The settings on record: HeLa cells, 12 hours, immunoblot. The protocol: as §2
Cell cycle regulatory protein p21 is one of p53's targets. […] In this experiment, HeLa cells were treated with the indicated concentrations of DXR or NSC745885 for 12 hours and then assessed by immunoblot (FIG. 6A) and RT-PCR (FIG. 6B).
In FIG. 6C, HeLa cells were treated with the indicated concentrations of NSC745885 for 12 hours; proteasome inhibitor MG132 (1 uM or 10 uM) was added 3 hours before harvesting. Cell protein extracts were tested with anti-p53 and anti-p21 antibodies. The results are representative of two independent experiments.
For orientation: In western blotting, separated proteins are transferred to a membrane and probed.

On to `O=C1c2ccccc2C(=O)c2c1ccc1nsnc21` [NSC745885, anthra[2,1-c][1,2,5]thiadiazole-6,11-dione], for which, in assay [1] (100 μM, H1299 cell extract), the “telomerase activity (TRAP lane pattern)” value is “little different from positive control”. In addition, the “telomerase inhibitory activity level” value in [1] (H1299 cells, TRAP) is reported as “activity at the micromolar level”. Moreover, the proliferation percentage is listed as −73.27% in assay [2], −50.63% in assay [3] and 16.29% in [4]. For the same compound, in assay [5], the SAS cells proliferation result is on record as “significantly inhibit”. In addition, the GI50 in assay [6] was 16.4 µM; in [9], 14.7 µM; in assay [12], 13.4 µM; in assay [13], 12.4 µM. Further, in assay [7] (delta of the one dose mean graph), the “proliferation percentage, Delta” value is on record as 102.68%. The “proliferation percentage, Mean” value in assay [7] (mean over the cell lines) worked out at 2.68%. In assay [7] (range over the cell lines), the “proliferation percentage, Range” value was found to be 230.09%. The SCF protein level result in assay [8] (5 μM, MBT2, T24, MCF-7, MDA-MB-453, PC3, LNCaP, 786-O, 293T) was “significantly decreased”. For the same compound, in assay [8] (MBT2, T24 and SV_HUC—1 cells, 24 hours, increasing concentrations), the SCF protein expression entry is on record as “suppressed”. Moreover, the “DNA damage (phosphorylation of γ-H2A.X, immunoblot)” value in assay [10] is recorded as “strongly induced DNA damage”. The “protein levels of cleaved PARP and caspase 3 at high concentration” value in assay [11] (25 μM, compared to DXR) was “dramatically decreased”. The “induction of apoptosis (cleaved PARP, caspase 3, DNA fragmentation)” value in assay [11] (various doses) is listed as “comparable effect”. Further, in assay [14], the “p53 and p21 protein levels” value is “decreased p21 as well as p53 in a concentration-dependent manner”.

A word on the GI50: it is the concentration at which growth is held to half of that of the control.
